The inhibition is the share of the control response that was lost under treatment. What is called IC50 is the point on the concentration scale where inhibition reaches its midpoint.

The target of assay [1] is T1, furin (Homo sapiens, UniProt P09958). Put plainly: enzyme inhibition at a single concentration of […]. The class given is biochemical. The note with it: read-out: % inhibition at 100 μM.
Assay [2] deals with T1, furin. The class given is biochemical.

T1 sequence (P09958 108-794): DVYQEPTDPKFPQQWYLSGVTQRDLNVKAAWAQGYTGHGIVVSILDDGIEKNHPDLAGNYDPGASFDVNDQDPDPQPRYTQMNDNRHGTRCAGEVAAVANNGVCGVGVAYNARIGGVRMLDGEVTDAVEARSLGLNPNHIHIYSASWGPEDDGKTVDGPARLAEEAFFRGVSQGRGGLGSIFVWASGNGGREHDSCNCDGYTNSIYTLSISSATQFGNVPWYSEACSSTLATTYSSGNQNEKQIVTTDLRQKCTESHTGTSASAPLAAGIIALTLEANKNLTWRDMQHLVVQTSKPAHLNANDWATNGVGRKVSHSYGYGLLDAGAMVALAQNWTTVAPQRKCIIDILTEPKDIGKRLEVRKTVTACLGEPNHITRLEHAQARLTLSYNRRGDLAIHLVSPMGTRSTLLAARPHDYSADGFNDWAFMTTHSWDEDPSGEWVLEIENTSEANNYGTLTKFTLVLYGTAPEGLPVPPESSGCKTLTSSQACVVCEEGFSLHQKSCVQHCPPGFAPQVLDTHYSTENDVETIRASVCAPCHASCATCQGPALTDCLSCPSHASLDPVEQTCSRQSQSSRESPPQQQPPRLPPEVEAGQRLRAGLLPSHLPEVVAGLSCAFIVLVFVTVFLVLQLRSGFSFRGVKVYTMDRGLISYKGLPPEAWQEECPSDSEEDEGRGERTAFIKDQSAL

As for `Nc1nc(N)c2nc(CNc3ccc(C(=O)N[C@@H](CCC(=O)O)C(=O)O)cc3)cnc2n1` [aminopterin], the inhibition at 100 µM on furin [1] was above 70%.
On to `CN(Cc1cnc2nc(N)nc(N)c2n1)c1ccc(C(=O)N[C@@H](CCC(=O)O)C(=O)O)cc1` [methotrexate], for which, at furin [1], the inhibition at 100 µM was above 70%.
`N=C(N)c1ccc(/N=N/Nc2ccc(C(=N)N)cc2)cc1` [diminazene]: the IC50 against furin [2] was found to be 5.42 ± 0.11 µM.
Turning to `COc1cc(C2Oc3cc([C@H]4Oc5cc(O)cc(O)c5C(=O)[C@@H]4O)ccc3OC2CO)ccc1O` (stereo partly shown) [silybin], the inhibition at 100 µM on furin [1] is above 70%.
